Each structure is given as a SMILES string. Active and inactive are the calls of the source. Unless noted, no cut-off for these calls is given here. A value given as a limit tells only on which side of the number the result lay.

For assay [1], the target named is NAD-dependent protein deacylase sirtuin-5, mitochondrial (Homo sapiens, UniProt Q9NXA8). Briefly: blockers of sirtuin-5 peptide desuccinylation – biochemical, fluorescence imaging, cherry-pick, set 6, dose response (AID 720597).
The nature of assay [2]: HepG2 hepatoma cell viability loss – plate reader, dry powder, cytotoxicity control, dose response (AID 651947). Type of assay: functional, cell-based.
Assay [3] in a line: viability loss in HEK293T cells – cell-based, CellTiter-Glo luminescence, dry powder, set 6, cytotoxicity control, dose response (AID 651949). Particulars: HEK293. Type of assay: functional.
Assay [4] can be described thus: A549 cell viability loss – cherry-picked samples, cytotoxicity control, dose response (AID 1053184). Type of assay: functional, cell-based.
Assay [5] in a line: HEK293 cell viability loss – cherry-picked samples, cytotoxicity control, dose response (AID 1053185). Type of assay: functional, cell-based.
Assay [6] is described as follows: HepG2 cell viability loss – cherry-picked samples, cytotoxicity control, dose response (AID 1053183). The class given is functional, cell-based.
Assay [7] is described as follows: P. falciparum Dd2 growth inhibitors, dose response, SYBR Green, cherry-picked samples (AID 1159567). Type of assay: functional, cell-based.
Assay [8] can be described thus: toxicity to human hepatoma HepG2 cells – cell-based, cherry-picked samples, cytotoxicity control, dose response (AID 1159577). The class given is functional.
The target in the next assay is Mu-type opioid receptor (Homo sapiens, UniProt P35372). Briefly: Late-stage results from the probe development effort to identify antagonists of OPRK1: luminescence-based cell-based dose response OPRM1 counterscreen. The class given is functional. In general terms: The purpose of a counterscreen is to sort out artefacts and off-target activity.
In assay [9] the target is Delta-type opioid receptor (Homo sapiens, UniProt P41143). Briefly: Late-stage results from the probe development effort to identify antagonists of OPRK1: fluorescence-based cell-based dose response OPRD1 counterscreen. Type of assay: functional.
Assay [10] is described as follows: HeLa cell viability loss – plate reader, dry powder, cytotoxicity control, dose response (AID 651946). The class given is functional, cell-based.
Assay [11] in a line: inhibitors of non-replicating M. tuberculosis, dose response, luciferase, dry powder (AID 651619). Type of assay: functional. The settings on record: Mycobacterium tuberculosis.
The nature of assay [12]: inhibitors of non-replicating M. tuberculosis, dose response, luciferase, dry powder (AID 651620). Particulars: Mycobacterium tuberculosis. The class given is functional.
In assay [13] the target is Endoplasmic reticulum aminopeptidase 2 (Homo sapiens, UniProt Q6P179). Briefly: inhibition of ERAP2 arginine-AMC cleavage – biochemical, fluorescence plate reader, cherry-picked, set 2, selectivity assay for selective ERAP1 modulator project, dose response (AID 743320).
Assay [14] has as its target Endoplasmic reticulum aminopeptidase 1 (Homo sapiens, UniProt Q9NZ08). Briefly: inhibition of human ERAP1 enzyme activity – biochemical, cherry-pick, set 2, plate reader, dose response (AID 743314).

Chain of Delta-type opioid receptor (P41143 whole entry): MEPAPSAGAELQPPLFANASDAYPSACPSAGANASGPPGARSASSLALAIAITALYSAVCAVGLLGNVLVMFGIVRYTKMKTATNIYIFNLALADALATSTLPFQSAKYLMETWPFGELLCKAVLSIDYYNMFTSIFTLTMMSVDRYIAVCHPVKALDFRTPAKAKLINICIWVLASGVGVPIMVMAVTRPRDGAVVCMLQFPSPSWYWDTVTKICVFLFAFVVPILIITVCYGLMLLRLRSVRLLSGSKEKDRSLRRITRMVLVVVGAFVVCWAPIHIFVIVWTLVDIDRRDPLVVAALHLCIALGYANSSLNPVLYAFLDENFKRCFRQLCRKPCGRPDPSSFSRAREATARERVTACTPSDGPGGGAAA
Chain of NAD-dependent protein deacylase sirtuin-5, mitochondrial (Q9NXA8 whole entry): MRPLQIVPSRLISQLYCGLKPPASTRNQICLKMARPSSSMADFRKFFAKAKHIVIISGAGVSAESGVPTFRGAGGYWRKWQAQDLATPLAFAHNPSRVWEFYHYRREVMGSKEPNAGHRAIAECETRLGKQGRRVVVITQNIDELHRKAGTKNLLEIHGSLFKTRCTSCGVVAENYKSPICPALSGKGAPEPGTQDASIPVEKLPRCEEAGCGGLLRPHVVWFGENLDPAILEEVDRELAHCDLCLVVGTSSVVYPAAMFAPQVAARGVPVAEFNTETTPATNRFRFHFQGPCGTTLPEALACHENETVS
Chain of Mu-type opioid receptor (P35372 whole entry): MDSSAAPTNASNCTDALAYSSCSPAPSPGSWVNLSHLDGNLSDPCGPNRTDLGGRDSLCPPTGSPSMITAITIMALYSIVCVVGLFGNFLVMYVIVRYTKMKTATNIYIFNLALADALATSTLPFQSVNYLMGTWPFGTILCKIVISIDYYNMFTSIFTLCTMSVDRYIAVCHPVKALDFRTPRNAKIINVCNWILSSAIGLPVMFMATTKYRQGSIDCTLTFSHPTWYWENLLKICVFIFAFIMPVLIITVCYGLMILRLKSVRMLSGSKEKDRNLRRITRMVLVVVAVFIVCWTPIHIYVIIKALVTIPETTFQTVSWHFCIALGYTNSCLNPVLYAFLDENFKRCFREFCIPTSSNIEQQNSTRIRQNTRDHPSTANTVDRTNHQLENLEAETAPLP
Chain of Endoplasmic reticulum aminopeptidase 2 (Q6P179 whole entry): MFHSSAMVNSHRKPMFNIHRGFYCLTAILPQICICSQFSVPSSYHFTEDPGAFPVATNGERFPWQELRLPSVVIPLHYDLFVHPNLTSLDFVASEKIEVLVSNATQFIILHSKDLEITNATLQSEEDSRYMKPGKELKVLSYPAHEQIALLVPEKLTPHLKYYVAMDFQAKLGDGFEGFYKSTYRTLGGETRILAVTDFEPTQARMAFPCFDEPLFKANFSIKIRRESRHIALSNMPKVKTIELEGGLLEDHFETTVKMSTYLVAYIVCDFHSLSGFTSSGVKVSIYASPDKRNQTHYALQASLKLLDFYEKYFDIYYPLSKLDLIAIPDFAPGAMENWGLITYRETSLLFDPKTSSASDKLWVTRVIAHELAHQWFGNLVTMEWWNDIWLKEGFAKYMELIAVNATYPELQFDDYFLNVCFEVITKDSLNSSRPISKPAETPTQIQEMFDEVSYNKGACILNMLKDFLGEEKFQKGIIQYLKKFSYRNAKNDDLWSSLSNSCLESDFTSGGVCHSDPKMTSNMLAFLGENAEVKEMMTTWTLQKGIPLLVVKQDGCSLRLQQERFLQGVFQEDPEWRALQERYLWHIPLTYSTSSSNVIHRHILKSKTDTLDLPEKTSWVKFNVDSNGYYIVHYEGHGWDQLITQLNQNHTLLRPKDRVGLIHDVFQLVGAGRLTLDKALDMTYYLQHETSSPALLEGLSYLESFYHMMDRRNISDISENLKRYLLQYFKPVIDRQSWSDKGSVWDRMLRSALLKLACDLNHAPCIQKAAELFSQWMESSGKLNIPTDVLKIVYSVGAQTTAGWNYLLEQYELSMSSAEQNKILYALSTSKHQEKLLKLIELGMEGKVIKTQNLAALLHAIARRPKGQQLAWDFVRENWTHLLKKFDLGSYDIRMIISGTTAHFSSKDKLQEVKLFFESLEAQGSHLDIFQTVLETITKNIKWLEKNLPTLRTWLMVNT
Chain of Endoplasmic reticulum aminopeptidase 1 (Q9NZ08 whole entry): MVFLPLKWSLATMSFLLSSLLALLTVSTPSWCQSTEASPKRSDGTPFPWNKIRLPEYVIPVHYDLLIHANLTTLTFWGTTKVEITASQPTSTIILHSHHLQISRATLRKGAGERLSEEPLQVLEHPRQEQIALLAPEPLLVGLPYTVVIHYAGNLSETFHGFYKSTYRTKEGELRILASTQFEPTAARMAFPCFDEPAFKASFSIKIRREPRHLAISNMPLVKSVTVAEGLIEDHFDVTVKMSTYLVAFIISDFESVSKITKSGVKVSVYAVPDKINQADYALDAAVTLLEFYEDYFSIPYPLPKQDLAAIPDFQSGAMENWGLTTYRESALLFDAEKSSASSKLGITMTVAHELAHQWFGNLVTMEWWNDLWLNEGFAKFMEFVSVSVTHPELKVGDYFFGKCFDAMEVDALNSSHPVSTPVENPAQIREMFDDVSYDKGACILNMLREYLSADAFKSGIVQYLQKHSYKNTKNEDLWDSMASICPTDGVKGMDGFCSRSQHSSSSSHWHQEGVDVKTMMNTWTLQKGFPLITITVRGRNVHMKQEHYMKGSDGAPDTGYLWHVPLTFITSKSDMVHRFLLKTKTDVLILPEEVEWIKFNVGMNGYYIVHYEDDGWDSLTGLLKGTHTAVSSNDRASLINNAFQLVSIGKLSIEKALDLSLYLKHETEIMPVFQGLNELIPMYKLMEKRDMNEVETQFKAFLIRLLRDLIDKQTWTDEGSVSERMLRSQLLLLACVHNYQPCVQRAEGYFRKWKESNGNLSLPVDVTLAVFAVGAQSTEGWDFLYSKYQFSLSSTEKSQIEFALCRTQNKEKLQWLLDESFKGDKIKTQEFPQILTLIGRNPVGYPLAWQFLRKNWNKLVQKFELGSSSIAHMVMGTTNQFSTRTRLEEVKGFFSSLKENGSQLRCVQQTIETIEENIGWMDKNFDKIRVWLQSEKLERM

What is called AC50 is the concentration giving half of the maximal activity seen. Turning to `COCCNC(=O)C[C@@H]1CC[C@H]2[C@H](COc3ccc(NC(=O)Nc4cccc(F)c4)cc3C(=O)N2C)O1`, the AC50 in [1] is > 30 µM (inactive).
With `CS(=O)(=O)c1ccc(CSc2nnc(-c3ccccc3)o2)cc1`, the AC50 was 0.28 µM (active) in assay [2] and 49 µM (active) in assay [3].
With `C(=C\c1ccc([C@@H]2[C@@H]3CN(Cc4ccc5c(c4)OCO5)C[C@H]2N3)cc1)/c1ccccc1`, the AC50 is > 12 µM (inactive) in assay [4]; 17 µM (active) in assay [5]; 17.1 µM (active) in assay [6]; 6.09 µM (active) in assay [7]; 9.8 µM (active) in assay [8].
One may read the IC50 as the midpoint of a concentration-inhibition curve. With `COC(=O)c1cc(Br)cnc1N1CCC(NC2CCOCC2)CC1`, the IC50 is 50 µM (inactive) at Mu-type opioid receptor and > 50 µM (inactive) in [9].
For orientation: IC90 means the concentration at which the effect reaches the 90% level. As to `Brc1ccc(-c2nnc(SCc3ccccn3)o2)cc1`, the AC50 is 5.42 µM (active) in [2] and > 52 µM (inactive) in [10]. In addition, the concentration for an effect of 90% (IC90) in assay [11] and in assay [12] was 4 µM (active) each time.
As for `CCC(=O)N(C)C[C@@H]1Oc2ncc(C#Cc3ccncc3)cc2C(=O)N([C@@H](C)CO)C[C@@H]1C`, the AC50 is 17.2 µM (active) in assay [13] and 2.86 µM (active) in assay [14].

(Values after ChEMBL document CHEMBL1201862, “PubChem BioAssay data set” (2004).)
